Experimental data as given in patent publication US11110146B2, “Methods for reducing platelet aggregation and treating cardiovascular disease and other medical disorders” (Paradise Health, Inc., priority 2014, dated 2021).
Several values for one entry are separate records, joined by “and”; a condition that tells them apart may be missing. Equal entries are not always repeated.

What was measured:
Type in all cases: cell-based, human
[1] = test system: platelets in platelet-rich plasma (PRP); assay: Light transmission aggregometry, platelet aggregation induced by adenosine diphosphate; details: for inhibition of platelet aggregation in the presence of 5 or 20 μM ADP: at any of the concentrations tested
Description: (§1) All the experiments were conducted using healthy adult volunteers not taking aspirin or other medications that affect platelet aggregation. Whole blood was collected into 0.105 M buffered sodium citrate as the anticoagulant. Platelet-rich plasma (PRP) was prepared by centrifugation of whole blood at 135×g for 20 min. The residual blood sample was then centrifuged at 2,500×g for 15 min to obtain platelet-poor plasma (PPP). Platelet counts in the PRP were determined using a Horiba Micros 60 cell counter. For LTA experiments, platelet counts in PRP were adjusted to 250,000/μL using autologous donor PPP as the diluent.
Stock solutions of ADP (200 μM) were prepared in saline and stored frozen at −80° C. A vial of stock ADP was thawed and further diluted in saline to obtain a 50 μM ADP solution. Fifty (50) μL of ADP solution (200 and 50 μM) were added to 450 μL of adjusted PRP to perform aggregation tests with 20 μM ADP and 5 μM ADP.
(§2) The samples were incubated in a water bath at 37° C. for 30 min before performing the LTA experiments. […]
(§3) After incubation of PRP with test articles, 450 μL of PRP were transferred into aggregation cuvettes for LTA testing. All aggregation experiments were performed on a LTA-Chronolog 700 aggregometer with Aggrolink 8 software. The instrument was set for an optical mode of data acquisition and the stir bar speed was set to 1.200 rpm. Autologous PPP was used in the reference channel of the aggregometer and baselines were set prior to addition of agonists. Fifty (50) μL of working agonist solutions (AA, ADP, and Collagen) were added to the cuvettes and tracings recorded for a minimum of 6 minutes. The maximal aggregation (MA) response was calculated using Aggrolink software for reporting the data.

[2] = test system: platelets in platelet-rich plasma (PRP); assay: Light transmission aggregometry, platelet aggregation induced by collagen
Description: Whole blood was collected into 0.105 M buffered sodium citrate as the anticoagulant. Platelet-rich plasma (PRP) was prepared by centrifugation of whole blood at 135×g for 20 min. The residual blood sample was then centrifuged at 2,500×g for 15 min to obtain platelet-poor plasma (PPP). Platelet counts in the PRP were determined using a Horiba Micros 60 cell counter. For LTA experiments, platelet counts in PRP were adjusted to 250,000/μL using autologous donor PPP as the diluent.
Twenty five (25) jμL of the stock solution of collagen (1 mg/ml) was added to 475 μL of collagen dilution buffer to obtain a 50 μg/ml working solution. Fifty (50) μL of collagen solution was added to 450 μL of adjusted PRP to perform aggregation tests. The final concentration of collagen used for aggregation testing was 5 μg/ml.
as §2, §3

[3] = test system: platelets in platelet-rich plasma (PRP); assay: Light transmission aggregometry, platelet aggregation induced by arachidonic acid
Description: as §1
The stock vial (16 mM) of AA was diluted by adding 0.5 mL of deionized water to obtain a 1.6 mM AA solution. The AA solution was maintained on ice and was used within 6 hr of preparation.
The samples were incubated in a water bath at 37° C. for 30 min before performing the LTA experiments.
The adjusted PRP was incubated with indicated concentration of GoPE (Table 7) for 30 min at 37° C.
as §3

[4] = 6-paradol 1 μM, individual donor
[5] = 6-paradol 10 μM, individual donor
[6] = 6-paradol 100 μM, individual donor
[7] = 6-paradol 1000 μM, individual donor
[8] = substance at 10 μM and higher (6-paradol: in most experiments)
[9] = substance at a concentration of 1 μM
[10] = Aspirin 10 μM, individual donor
[11] = Aspirin 100 μM, individual donor
[12] = Aspirin 1000 μM, individual donor

## CCCCCCCC(=O)CCc1ccc(O)c(OC)c1 [6-paradol]
[1]; 6-paradol 1 μM, Mean
  Maximal Percent Aggregation Response to 5 μM Adenosine Diphosphate: 77%
  Maximal Percent Aggregation Response to 20 μM Adenosine Diphosphate: 83%
[1]; [4]
  Maximal Percent Aggregation Response to 5 μM Adenosine Diphosphate: 83% and 81% and 92% and 50%
  Maximal Percent Aggregation Response to 20 μM Adenosine Diphosphate: 70% and 85% and 88% and 74% and 99%
[1]; 6-paradol 10 μM, Mean
  Maximal Percent Aggregation Response to 5 μM Adenosine Diphosphate: 74%
  Maximal Percent Aggregation Response to 20 μM Adenosine Diphosphate: 86%
[1]; [5]
  Maximal Percent Aggregation Response to 5 μM Adenosine Diphosphate: 77% and 78% and 96% and 46%
  Maximal Percent Aggregation Response to 20 μM Adenosine Diphosphate: 81% and 82% and 100% and 84% and 85%
[1]; 6-paradol 100 μM, Mean
  Maximal Percent Aggregation Response to 5 μM Adenosine Diphosphate: 63%
  Maximal Percent Aggregation Response to 20 μM Adenosine Diphosphate: 79%
[1]; [6]
  Maximal Percent Aggregation Response to 5 μM Adenosine Diphosphate: 57% and 67% and 81% and 45%
  Maximal Percent Aggregation Response to 20 μM Adenosine Diphosphate: 63% and 73% and 95% and 76% and 90%
[1]; 6-paradol 1000 μM, Mean
  Maximal Percent Aggregation Response to 5 μM Adenosine Diphosphate: 50%
  Maximal Percent Aggregation Response to 20 μM Adenosine Diphosphate: 66%
[1]; [7]
  Maximal Percent Aggregation Response to 5 μM Adenosine Diphosphate: 55% and 53% and 59% and 33%
  Maximal Percent Aggregation Response to 20 μM Adenosine Diphosphate: 53% and 67% (3×) and 78%
[1]
  inhibition of platelet aggregation in the presence of 5 or 20 μM ADP: did not significantly inhibit
[2]; 6-paradol 1 μM, Mean
  Maximal Percent Aggregation Response to 5 μg/ml Collagen: 89%
[2]; [4]
  Maximal Percent Aggregation Response to 5 μg/ml Collagen: 81% and 100% and 77% and 97% and 90%
[2]; 6-paradol 10 μM, Mean
  Maximal Percent Aggregation Response to 5 μg/ml Collagen: 95%
[2]; [5]
  Maximal Percent Aggregation Response to 5 μg/ml Collagen: 82% and 100% (2×) and 97% and 98%
[2]; 6-paradol 100 μM, Mean
  Maximal Percent Aggregation Response to 5 μg/ml Collagen: 85%
[2]; [6]
  Maximal Percent Aggregation Response to 5 μg/ml Collagen: 82% and 100% and 88% and 89% and 64%
[2]; 6-paradol 1000 μM
  inhibition of collagen-mediated platelet aggregation response: substantially inhibited
[2]; 6-paradol 1000 μM, Mean
  Maximal Percent Aggregation Response to 5 μg/ml Collagen: 41%
[2]; [7]
  Maximal Percent Aggregation Response to 5 μg/ml Collagen: 23% and 60% and 36% and 74% and 10%
[2]; 6-paradol concentrations of 100 μM or less
  inhibition of collagen-mediated platelet aggregation: did not significantly inhibit
[3]; 6-paradol 1 μM, Mean
  Maximal Percent Aggregation Response to 1.6 mM Arachidonic Acid: 82%
[3]; [4]
  Maximal Percent Aggregation Response to 1.6 mM Arachidonic Acid: 72% and 77% and 96% and 65% and 98%
[3]; 6-paradol 10 μM, Mean
  Maximal Percent Aggregation Response to 1.6 mM Arachidonic Acid: 51%
[3]; [5]
  Maximal Percent Aggregation Response to 1.6 mM Arachidonic Acid: 0% (2×) and 99% and 71% and 87%
[3]; 6-paradol 100 μM, Mean
  Maximal Percent Aggregation Response to 1.6 mM Arachidonic Acid: 2%
[3]; [6]
  Maximal Percent Aggregation Response to 1.6 mM Arachidonic Acid: 0% (4×) and 9%
[3]; 6-paradol 1000 μM, Mean
  Maximal Percent Aggregation Response to 1.6 mM Arachidonic Acid: 1%
[3]; [7]
  Maximal Percent Aggregation Response to 1.6 mM Arachidonic Acid: 0% (4×) and 3%
[3]; [8]
  inhibition of AA-mediated platelet aggregation: Near complete inhibition
[3]; [9]
  inhibition of AA-mediated platelet aggregation: did not significantly inhibit

## CC(=O)Oc1ccccc1C(=O)O [Aspirin, aspirin]
[1]; Aspirin 1 μM, Mean
  Maximal Percent Aggregation Response to 5 μM Adenosine Diphosphate: 82%
  Maximal Percent Aggregation Response to 20 μM Adenosine Diphosphate: 90%
[1]; Aspirin 1 μM, individual donor
  Maximal Percent Aggregation Response to 5 μM Adenosine Diphosphate: 78% and 83% and 92% and 73%
  Maximal Percent Aggregation Response to 20 μM Adenosine Diphosphate: 91% and 87% and 100% and 81% and 90%
[1]; Aspirin 10 μM, Mean
  Maximal Percent Aggregation Response to 5 μM Adenosine Diphosphate: 70%
  Maximal Percent Aggregation Response to 20 μM Adenosine Diphosphate: 80%
[1]; [10]
  Maximal Percent Aggregation Response to 5 μM Adenosine Diphosphate: 82% and 63% and 84% and 52%
  Maximal Percent Aggregation Response to 20 μM Adenosine Diphosphate: 78% (2×) and 92% and 68% and 84%
[1]; Aspirin 100 μM, Mean
  Maximal Percent Aggregation Response to 5 μM Adenosine Diphosphate: 71%
  Maximal Percent Aggregation Response to 20 μM Adenosine Diphosphate: 86%
[1]; [11]
  Maximal Percent Aggregation Response to 5 μM Adenosine Diphosphate: 63% and 94% and 75% and 53%
  Maximal Percent Aggregation Response to 20 μM Adenosine Diphosphate: 63% and 87% (2×) and 95% and 97%
[1]; Aspirin 1000 μM, Mean
  Maximal Percent Aggregation Response to 5 μM Adenosine Diphosphate: 74%
  Maximal Percent Aggregation Response to 20 μM Adenosine Diphosphate: 80%
[1]; [12]
  Maximal Percent Aggregation Response to 5 μM Adenosine Diphosphate: 71% and 90% and 86% and 50%
  Maximal Percent Aggregation Response to 20 μM Adenosine Diphosphate: 72% and 84% and 80% and 78% and 88%
[1]
  inhibition of platelet aggregation in the presence of 5 or 20 μM ADP: did not significantly inhibit
[2]; Aspirin 1 μM, Mean
  Maximal Percent Aggregation Response to 5 μg/mL Collagen: 94%
[2]; Aspirin 1 μM, individual donor
  Maximal Percent Aggregation Response to 5 μg/mL Collagen: 100% (2×) and 82% and 92% and 97%
[2]; Aspirin 10 μM, Mean
  Maximal Percent Aggregation Response to 5 μg/mL Collagen: 91%
[2]; [10]
  Maximal Percent Aggregation Response to 5 μg/mL Collagen: 86% and 100% (2×) and 80% and 87%
[2]; Aspirin 100 μM, Mean
  Maximal Percent Aggregation Response to 5 μg/mL Collagen: 65%
[2]; [11]
  Maximal Percent Aggregation Response to 5 μg/mL Collagen: 52% and 92% and 61% and 90% and 28%
[2]; Aspirin 1000 μM, Mean
  Maximal Percent Aggregation Response to 5 μg/mL Collagen: 56%
[2]; [12]
  Maximal Percent Aggregation Response to 5 μg/mL Collagen: 39% and 75% and 52% and 83% and 32%
[2]; Homo sapiens, Platelet, read-out: inhibition of collagen-mediated platelet aggregation response relative to DMSO control
  inhibition at 1000 µM: ~37%
[3]; Aspirin 1 μM, Mean
  Maximal Percent Aggregation Response to 1.6 mM Arachidonic Acid: 69%
[3]; Aspirin 1 μM, individual donor
  Maximal Percent Aggregation Response to 1.6 mM Arachidonic Acid: 75% and 0% and 100% and 73% and 95%
[3]; Aspirin 10 μM, Mean
  Maximal Percent Aggregation Response to 1.6 mM Arachidonic Acid: 2%
[3]; [10]
  Maximal Percent Aggregation Response to 1.6 mM Arachidonic Acid: 0% (3×) and 1% and 7%
[3]; Aspirin 100 μM, Mean
  Maximal Percent Aggregation Response to 1.6 mM Arachidonic Acid: 1%
[3]; [11]
  Maximal Percent Aggregation Response to 1.6 mM Arachidonic Acid: 0% (4×) and 5%
[3]; Aspirin 1000 μM, Mean
  Maximal Percent Aggregation Response to 1.6 mM Arachidonic Acid: 2%
[3]; [12]
  Maximal Percent Aggregation Response to 1.6 mM Arachidonic Acid: 0% (3×) and 8%
[3]; [8]
  inhibition of AA-mediated platelet aggregation: near complete inhibition
[3]; [9]
  inhibition of AA-mediated platelet aggregation: did not significantly inhibit
